In publication PMC8398766, “Do Small Molecules Activate the TrkB Receptor in the Same Manner as BDNF? Limitations of Published TrkB Low Molecular Agonists and Screening for Novel TrkB Orthosteric Agonists” (Pharmaceuticals, 2021):
Where “and” joins values, the source holds several entries; their conditions need not be identical. Identical values can stand only once.

Assays:
Experiment in all cases: BioPrint Profile Panel
Assay type in all cases: binding
D1 = target: T1, D1 (Homo sapiens, UniProt P21728); conditions: Antagonist, Receptor, read-out: % of specific inhibition
T1 construct: purchased Eurofins Discovery (Cerep) BioPrint Profile Panel
Source text: (§1) The BioPrint® Profile Panel service offered by Eurofins Discovery (Poitiers, France) was chosen to perform selectivity analysis.

D3 = target: T2, D3 (Homo sapiens, UniProt P35462); conditions: Antagonist, Receptor, read-out: % of specific inhibition
T2 construct: purchased Eurofins Discovery (Cerep) BioPrint Profile Panel
Source text: as §1

CB2 = target: T3, CB2 (Homo sapiens, UniProt P34972); conditions: Agonist, Receptor, read-out: % of specific inhibition
T3 construct: purchased Eurofins Discovery (Cerep) BioPrint Profile Panel
Source text: as §1

TNF-α = conditions: 10 μM; Agonist; Receptor
Source text: as §1

Cl- channel = conditions: 10 μM; Antagonist; Ion Channel
Source text: as §1

SKCa channel = conditions: 10 μM; Antagonist; Ion Channel
Source text: as §1

GABA transporter = conditions: 10 μM, Antagonist
Source text: as §1

BZD = conditions: 10 μM, Agonist, Ion Channel
Source text: as §1

UT = target: T4, UT (Homo sapiens, UniProt Q9UKP6); conditions: Agonist, Receptor, read-out: % of specific inhibition
T4 construct: purchased Eurofins Discovery (Cerep) BioPrint Profile Panel
Source text: as §1

5-HT4e = target: T5, 5-HT4e (Homo sapiens, UniProt Q13639); conditions: Antagonist, Receptor, read-out: % of specific inhibition
T5 construct: purchased Eurofins Discovery (Cerep) BioPrint Profile Panel
Source text: as §1

Y1 = target: T6, Y1 (Homo sapiens, UniProt P25929); conditions: Agonist, Receptor, read-out: % of specific inhibition
T6 construct: purchased Eurofins Discovery (Cerep) BioPrint Profile Panel
Source text: as §1

Na+ channel = conditions: 10 μM; Antagonist; Ion Channel
Source text: as §1

motilin = target: T7, motilin (Homo sapiens, UniProt O43193); conditions: Agonist, Receptor, read-out: % of specific inhibition
T7 construct: purchased Eurofins Discovery (Cerep) BioPrint Profile Panel
Source text: as §1

ETA = target: T8, ETA (Homo sapiens, UniProt P25101); conditions: Agonist, Receptor, read-out: % of specific inhibition
T8 construct: purchased Eurofins Discovery (Cerep) BioPrint Profile Panel
Source text: as §1

H1 = target: T9, H1 (Homo sapiens, UniProt P35367); conditions: Antagonist, Receptor, read-out: % of specific inhibition
T9 construct: purchased Eurofins Discovery (Cerep) BioPrint Profile Panel
Source text: as §1

NOP (ORL1) = target: T10, NOP (ORL1) (Homo sapiens, UniProt P41146); conditions: Agonist, Receptor, read-out: % of specific inhibition
T10 construct: purchased Eurofins Discovery (Cerep) BioPrint Profile Panel
Source text: as §1

CCK1 = target: T11, CCK1 (Homo sapiens, UniProt P32238); conditions: Agonist, Receptor, read-out: % of specific inhibition
T11 construct: purchased Eurofins Discovery (Cerep) BioPrint Profile Panel
Source text: as §1

M3 = target: T12, M3 (Homo sapiens, UniProt P20309); conditions: Antagonist, Receptor, read-out: % of specific inhibition
T12 construct: purchased Eurofins Discovery (Cerep) BioPrint Profile Panel
Source text: as §1

5-HT2A = target: T13, 5-HT2A (Homo sapiens, UniProt P28223); conditions: Agonist, Receptor, read-out: % of specific inhibition
T13 construct: purchased Eurofins Discovery (Cerep) BioPrint Profile Panel
Source text: as §1

CRF1 = target: T14, CRF1 (Homo sapiens, UniProt P34998); conditions: Agonist, Receptor, read-out: % of specific inhibition
T14 construct: purchased Eurofins Discovery (Cerep) BioPrint Profile Panel
Source text: as §1

β2 = target: T15, β2 (Homo sapiens, UniProt P07550); conditions: Antagonist, Receptor, read-out: % of specific inhibition
T15 construct: purchased Eurofins Discovery (Cerep) BioPrint Profile Panel
Source text: as §1

glucagon = target: T16, glucagon (Homo sapiens, UniProt P47871); conditions: Agonist, Receptor, read-out: % of specific inhibition
T16 construct: purchased Eurofins Discovery (Cerep) BioPrint Profile Panel
Source text: as §1

NK2 = target: T17, NK2 (Homo sapiens, UniProt P21452); conditions: Agonist, Receptor, read-out: % of specific inhibition
T17 construct: purchased Eurofins Discovery (Cerep) BioPrint Profile Panel
Source text: as §1

[1] = tested on: Ca2+ channel (verapamil site); conditions: 10 μM; Antagonist (verapamil site); Ion Channel
Source text: as §1

GABAA1 (h) (α1, β2, γ2) = target: T18, GABAA1 (h) (α1, β2, γ2) (Homo sapiens, UniProt P14867+P47870); conditions: Agonist, Receptor, read-out: % of specific inhibition
T18 construct: purchased Eurofins Discovery (Cerep) BioPrint Profile Panel
Source text: as §1

VPAC1 = target: T19, VPAC1 (Homo sapiens, UniProt P32241); conditions: Agonist, Receptor, read-out: % of specific inhibition
T19 construct: purchased Eurofins Discovery (Cerep) BioPrint Profile Panel
Source text: as §1

α2C = target: T20, α2C (Homo sapiens, UniProt P18825); conditions: Antagonist, Receptor, read-out: % of specific inhibition
T20 construct: purchased Eurofins Discovery (Cerep) BioPrint Profile Panel
Source text: as §1

B2 = target: T21, B2 (Homo sapiens, UniProt P30411); conditions: Agonist, Receptor, read-out: % of specific inhibition
T21 construct: purchased Eurofins Discovery (Cerep) BioPrint Profile Panel
Source text: as §1

sigma = conditions: 10 μM; Agonist; Receptor
Source text: as §1

MC4 = target: T22, MC4 (Homo sapiens, UniProt P32245); conditions: Agonist, Receptor, read-out: % of specific inhibition
T22 construct: purchased Eurofins Discovery (Cerep) BioPrint Profile Panel
Source text: as §1

T22 sequence (P32245 whole entry): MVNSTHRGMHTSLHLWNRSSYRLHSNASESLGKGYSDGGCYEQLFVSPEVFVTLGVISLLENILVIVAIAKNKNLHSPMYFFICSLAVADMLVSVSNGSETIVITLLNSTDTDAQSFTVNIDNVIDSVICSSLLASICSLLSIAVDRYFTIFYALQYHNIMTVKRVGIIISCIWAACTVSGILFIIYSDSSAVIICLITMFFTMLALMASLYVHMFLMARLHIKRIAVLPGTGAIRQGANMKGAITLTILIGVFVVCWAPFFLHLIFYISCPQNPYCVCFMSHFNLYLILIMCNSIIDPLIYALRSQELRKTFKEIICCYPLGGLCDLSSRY
T16 sequence (P47871 26-477): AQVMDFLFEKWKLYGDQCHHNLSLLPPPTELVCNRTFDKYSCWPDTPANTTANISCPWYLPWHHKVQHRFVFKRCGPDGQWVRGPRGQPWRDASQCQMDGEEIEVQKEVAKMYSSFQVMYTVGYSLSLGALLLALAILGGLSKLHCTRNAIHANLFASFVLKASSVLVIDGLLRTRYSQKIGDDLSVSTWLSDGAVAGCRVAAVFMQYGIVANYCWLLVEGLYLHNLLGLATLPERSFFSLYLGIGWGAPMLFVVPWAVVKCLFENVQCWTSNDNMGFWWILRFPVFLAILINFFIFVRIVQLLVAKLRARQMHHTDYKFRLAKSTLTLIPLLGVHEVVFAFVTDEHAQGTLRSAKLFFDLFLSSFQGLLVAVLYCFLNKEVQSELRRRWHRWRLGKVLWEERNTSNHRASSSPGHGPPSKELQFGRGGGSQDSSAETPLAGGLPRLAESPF
T18 sequence (P14867 28-456): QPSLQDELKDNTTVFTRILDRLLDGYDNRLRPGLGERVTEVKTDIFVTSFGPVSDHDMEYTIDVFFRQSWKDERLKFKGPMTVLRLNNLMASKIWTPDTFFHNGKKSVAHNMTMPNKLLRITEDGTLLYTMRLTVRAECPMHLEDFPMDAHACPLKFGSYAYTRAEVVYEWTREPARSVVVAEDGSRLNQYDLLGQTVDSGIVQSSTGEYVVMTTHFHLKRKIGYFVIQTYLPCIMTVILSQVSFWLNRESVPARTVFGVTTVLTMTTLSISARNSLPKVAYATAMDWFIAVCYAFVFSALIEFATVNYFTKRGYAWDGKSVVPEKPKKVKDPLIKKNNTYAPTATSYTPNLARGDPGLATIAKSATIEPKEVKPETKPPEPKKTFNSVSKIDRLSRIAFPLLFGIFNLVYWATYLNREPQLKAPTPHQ
T18 sequence (P47870 25-512 limits assumed): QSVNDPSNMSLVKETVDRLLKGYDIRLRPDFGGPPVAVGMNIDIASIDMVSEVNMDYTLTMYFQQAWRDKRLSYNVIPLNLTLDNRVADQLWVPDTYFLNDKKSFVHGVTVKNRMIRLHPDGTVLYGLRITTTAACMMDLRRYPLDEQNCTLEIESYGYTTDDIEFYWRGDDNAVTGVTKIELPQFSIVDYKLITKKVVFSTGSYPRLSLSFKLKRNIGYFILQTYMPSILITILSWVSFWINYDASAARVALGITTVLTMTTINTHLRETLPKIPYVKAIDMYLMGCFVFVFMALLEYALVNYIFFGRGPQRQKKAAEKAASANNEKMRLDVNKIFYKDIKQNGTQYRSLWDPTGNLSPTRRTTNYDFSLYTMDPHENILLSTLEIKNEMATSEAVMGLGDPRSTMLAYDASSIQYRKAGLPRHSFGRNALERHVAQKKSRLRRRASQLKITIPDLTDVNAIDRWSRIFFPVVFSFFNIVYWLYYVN
T18 sequence (P18507 40-467 partner limits assumed): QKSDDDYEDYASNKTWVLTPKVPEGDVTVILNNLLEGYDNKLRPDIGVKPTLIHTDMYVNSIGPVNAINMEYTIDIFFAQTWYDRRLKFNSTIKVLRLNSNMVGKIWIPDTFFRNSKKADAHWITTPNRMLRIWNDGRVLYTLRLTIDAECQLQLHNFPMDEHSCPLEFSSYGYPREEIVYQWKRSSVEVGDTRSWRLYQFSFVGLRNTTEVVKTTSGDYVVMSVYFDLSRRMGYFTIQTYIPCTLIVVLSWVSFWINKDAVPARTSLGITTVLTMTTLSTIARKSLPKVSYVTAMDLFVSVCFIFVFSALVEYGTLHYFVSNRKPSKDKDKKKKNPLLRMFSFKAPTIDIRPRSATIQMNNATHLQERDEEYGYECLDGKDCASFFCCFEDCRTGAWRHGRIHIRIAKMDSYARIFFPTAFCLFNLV
T21 sequence (P30411 whole entry): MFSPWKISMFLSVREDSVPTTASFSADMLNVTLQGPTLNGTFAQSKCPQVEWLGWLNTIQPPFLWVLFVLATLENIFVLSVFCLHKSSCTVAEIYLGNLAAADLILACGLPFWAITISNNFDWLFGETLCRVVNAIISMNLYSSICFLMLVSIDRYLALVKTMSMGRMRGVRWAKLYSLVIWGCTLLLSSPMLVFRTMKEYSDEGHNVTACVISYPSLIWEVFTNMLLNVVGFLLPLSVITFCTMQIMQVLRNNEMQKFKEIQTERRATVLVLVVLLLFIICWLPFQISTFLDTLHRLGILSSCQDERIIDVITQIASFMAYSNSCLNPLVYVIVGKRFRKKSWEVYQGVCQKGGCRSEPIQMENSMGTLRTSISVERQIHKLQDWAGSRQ
T4 sequence (Q9UKP6 whole entry): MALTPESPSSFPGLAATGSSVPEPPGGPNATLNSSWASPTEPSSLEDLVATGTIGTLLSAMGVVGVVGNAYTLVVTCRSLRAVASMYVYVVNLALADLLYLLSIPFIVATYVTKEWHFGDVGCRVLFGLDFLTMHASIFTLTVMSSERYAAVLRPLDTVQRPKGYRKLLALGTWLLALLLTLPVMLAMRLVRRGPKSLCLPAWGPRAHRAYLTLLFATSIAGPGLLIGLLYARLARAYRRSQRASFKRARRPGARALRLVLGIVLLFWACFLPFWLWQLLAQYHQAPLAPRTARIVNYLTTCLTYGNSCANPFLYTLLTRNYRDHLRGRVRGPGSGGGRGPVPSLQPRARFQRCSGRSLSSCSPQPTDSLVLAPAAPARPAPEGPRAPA
T8 sequence (P25101 21-427): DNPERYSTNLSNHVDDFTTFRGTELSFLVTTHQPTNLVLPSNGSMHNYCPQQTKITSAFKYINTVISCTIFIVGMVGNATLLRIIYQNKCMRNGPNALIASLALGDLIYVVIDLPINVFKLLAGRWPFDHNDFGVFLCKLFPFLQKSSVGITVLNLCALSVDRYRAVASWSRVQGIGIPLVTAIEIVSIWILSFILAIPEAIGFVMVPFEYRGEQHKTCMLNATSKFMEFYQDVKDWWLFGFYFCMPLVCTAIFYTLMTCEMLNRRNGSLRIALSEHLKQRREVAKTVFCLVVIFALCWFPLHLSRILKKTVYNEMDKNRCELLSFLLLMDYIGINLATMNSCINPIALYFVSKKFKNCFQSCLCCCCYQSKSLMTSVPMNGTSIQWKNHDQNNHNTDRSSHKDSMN
T7 sequence (O43193 whole entry): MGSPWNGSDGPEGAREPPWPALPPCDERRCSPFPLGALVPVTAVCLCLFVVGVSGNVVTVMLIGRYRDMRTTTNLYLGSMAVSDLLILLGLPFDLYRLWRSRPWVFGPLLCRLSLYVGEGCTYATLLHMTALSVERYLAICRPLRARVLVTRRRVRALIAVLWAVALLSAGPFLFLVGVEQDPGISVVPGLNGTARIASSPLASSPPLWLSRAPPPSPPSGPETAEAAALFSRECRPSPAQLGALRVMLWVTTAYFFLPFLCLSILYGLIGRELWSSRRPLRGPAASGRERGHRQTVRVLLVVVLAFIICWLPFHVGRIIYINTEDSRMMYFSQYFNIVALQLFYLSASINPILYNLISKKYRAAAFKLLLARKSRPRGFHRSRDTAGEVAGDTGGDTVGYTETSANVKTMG
T11 sequence (P32238 whole entry): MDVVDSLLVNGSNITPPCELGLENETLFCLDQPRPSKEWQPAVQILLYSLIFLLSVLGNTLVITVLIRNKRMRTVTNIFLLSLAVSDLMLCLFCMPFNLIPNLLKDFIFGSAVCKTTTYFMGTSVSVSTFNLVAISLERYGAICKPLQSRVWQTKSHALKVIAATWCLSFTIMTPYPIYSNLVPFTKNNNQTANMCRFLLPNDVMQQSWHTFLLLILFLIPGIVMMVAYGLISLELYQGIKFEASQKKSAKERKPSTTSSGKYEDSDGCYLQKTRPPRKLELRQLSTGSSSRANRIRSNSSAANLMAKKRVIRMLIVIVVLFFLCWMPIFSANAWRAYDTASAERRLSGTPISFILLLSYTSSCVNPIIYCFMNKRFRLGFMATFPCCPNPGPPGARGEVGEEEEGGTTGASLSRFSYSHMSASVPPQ
T10 sequence (P41146 whole entry): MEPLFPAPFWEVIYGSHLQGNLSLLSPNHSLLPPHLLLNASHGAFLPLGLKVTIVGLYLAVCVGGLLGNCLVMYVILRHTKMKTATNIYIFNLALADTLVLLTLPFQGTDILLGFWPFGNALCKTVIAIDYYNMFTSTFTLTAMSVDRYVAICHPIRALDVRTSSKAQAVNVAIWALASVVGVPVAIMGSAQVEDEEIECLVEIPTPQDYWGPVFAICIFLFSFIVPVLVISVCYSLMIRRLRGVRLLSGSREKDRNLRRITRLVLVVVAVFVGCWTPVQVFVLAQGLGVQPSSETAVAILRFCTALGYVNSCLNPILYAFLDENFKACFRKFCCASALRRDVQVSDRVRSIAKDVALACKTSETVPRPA
T5 sequence (Q13639 1-378 isoform Q13639-5): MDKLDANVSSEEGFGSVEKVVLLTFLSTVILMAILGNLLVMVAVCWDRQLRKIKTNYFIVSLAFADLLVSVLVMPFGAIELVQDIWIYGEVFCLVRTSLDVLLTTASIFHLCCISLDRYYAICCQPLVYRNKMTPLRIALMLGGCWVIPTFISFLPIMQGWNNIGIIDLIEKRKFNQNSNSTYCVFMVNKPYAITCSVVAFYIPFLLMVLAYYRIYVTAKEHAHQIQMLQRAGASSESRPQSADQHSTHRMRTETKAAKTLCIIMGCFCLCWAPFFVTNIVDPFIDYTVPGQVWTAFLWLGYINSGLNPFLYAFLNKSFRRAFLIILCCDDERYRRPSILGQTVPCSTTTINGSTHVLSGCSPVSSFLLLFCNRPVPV

O=c1cc(-c2ccccc2)oc2c(O)c(O)ccc12 [7,8-DHF, 7,8-dihydroxyflavone]
inhibition at 10 µM (D1): -4%
inhibition at 10 µM (D3): 2%
inhibition at 10 µM (CB2): -3%
% of specific inhibition (TNF-α): 2%
% of specific inhibition (Cl- channel): -7%
% of specific inhibition (SKCa channel): 4%
% of specific inhibition (GABA transporter): -2%
% Inhibition of Control Specific Binding (BZD): 71% and 70.6%
inhibition at 10 µM (UT): -9%
inhibition at 10 µM (5-HT4e): -11%
inhibition at 10 µM (Y1): 8%
% of specific inhibition (Na+ channel): -11%
inhibition at 10 µM (motilin): -2%
inhibition at 10 µM (ETA): -10%
inhibition at 10 µM (H1): -5%
inhibition at 10 µM (NOP (ORL1)): 11%
inhibition at 10 µM (CCK1): 21%
inhibition at 10 µM (M3): -7%
inhibition at 10 µM (5-HT2A): -4%
inhibition at 10 µM (CRF1): 5%
inhibition at 10 µM (β2): -5%
inhibition at 10 µM (glucagon): 3%
inhibition at 10 µM (NK2): -2%
% of specific inhibition [1]: 2%
inhibition at 10 µM (GABAA1 (h) (α1, β2, γ2)): 12%
inhibition at 10 µM (VPAC1): -13%
inhibition at 10 µM (α2C): 1%
inhibition at 10 µM (B2): -6%
% of specific inhibition (sigma): 3%
inhibition at 10 µM (MC4): -5%
